# Measured values taken from US9624161B2 (priority 2009, dated 2017).
# “Also recorded” adds a separate entry of the source.
# Assays:
# [1] = system: estrogen related receptor (ERR-α, ERR-β and ERR-γ); assay: Estrogen related receptor transactivation, DES versus Compound IV; format: cell-based; details: FIG. 12C
# [2] = system: morphine dependent rat model; assay: Morphine dependent rat model of hot flashes (tail skin temperature); format: in vivo; details: 5, 10, 15 and 30 mg/kg (FIG. 13)
# Protocol: In addition to the similarities to the human condition, this experimental animal model has a short turn around time which makes it a useful high throughput screening tool for identifying compounds that can alleviate vasomotor symptoms using the tail skin temperature (TST). TST probes TA-40 (Data Sciences International, MN) were taped to the base of the tails and baseline temperatures were obtained for 15 minutes. After 15 minutes the animals were treated with naloxone (1 mg/kg, SQ) to reverse the effects of the morphine. Tail skin temperature (TST) was measured for one hour post-naloxone treatment with a sampling frequency of 5 secs throughout the course of the experiment. Following the data acquisition, the moving average of the temperature recorded every 60 seconds for each animal was calculated and further analyzed. Baseline temperature was computed as the average temperature acquired over the 15 minutes preceding naloxone administration. The area under the curve (AUC) was calculated by subtracting all the values post-naloxone administration from the baseline using a linear trapezoid method.
# human platelets = assay: In vitro human platelet aggregation assay (thrombin-induced)
# rats [3] = assay: Single and repeated oral dose toxicity in rats (up to 28 days); format: in vivo, rat
# From the text: Compound IV was well-tolerated by rats and dogs after single and repeated oral administration (up to 28 days).
# [4] = system: castrated male cynomolgus monkeys; assay: Compound IV studies on castrated monkeys, 90 days (Example 22); format: in vivo, cynomolgus monkey
# rats [5] = assay: Gastrointestinal effects after oral administration in rats; format: in vivo, rat
# [6] = target: T1, retinoid X receptor (RXR-α) (Homo sapiens, UniProt P19793); assay: Nuclear receptor cross-reactivity transcriptional activation assay; format: cell-based; details: agonist and antagonist modes
# T1 construct: expressed in transfected cells
# From the text: (§1) Compound IV was screened for cross-reactivity against rat isoforms of glucocorticoid receptor (GR), mineralocorticoids receptor (MR), progesterone receptor (PR), androgen receptor (AR) and human isoforms of farnesoid X receptor (FXR), liver X receptor (LXR), peroxisome proliferator-activated receptors (PPAR-α and PPAR-γ), and retinoid X receptor (RXR-α) in both agonist and antagonist modes in transcriptional activation assays.
# [7] = target: T2, glucocorticoid receptor (GR) (Rattus norvegicus, UniProt P06536); assay: as above; format: cell-based
# T2 construct: expressed in transfected cells
# T2 sequence (P06536 1-795): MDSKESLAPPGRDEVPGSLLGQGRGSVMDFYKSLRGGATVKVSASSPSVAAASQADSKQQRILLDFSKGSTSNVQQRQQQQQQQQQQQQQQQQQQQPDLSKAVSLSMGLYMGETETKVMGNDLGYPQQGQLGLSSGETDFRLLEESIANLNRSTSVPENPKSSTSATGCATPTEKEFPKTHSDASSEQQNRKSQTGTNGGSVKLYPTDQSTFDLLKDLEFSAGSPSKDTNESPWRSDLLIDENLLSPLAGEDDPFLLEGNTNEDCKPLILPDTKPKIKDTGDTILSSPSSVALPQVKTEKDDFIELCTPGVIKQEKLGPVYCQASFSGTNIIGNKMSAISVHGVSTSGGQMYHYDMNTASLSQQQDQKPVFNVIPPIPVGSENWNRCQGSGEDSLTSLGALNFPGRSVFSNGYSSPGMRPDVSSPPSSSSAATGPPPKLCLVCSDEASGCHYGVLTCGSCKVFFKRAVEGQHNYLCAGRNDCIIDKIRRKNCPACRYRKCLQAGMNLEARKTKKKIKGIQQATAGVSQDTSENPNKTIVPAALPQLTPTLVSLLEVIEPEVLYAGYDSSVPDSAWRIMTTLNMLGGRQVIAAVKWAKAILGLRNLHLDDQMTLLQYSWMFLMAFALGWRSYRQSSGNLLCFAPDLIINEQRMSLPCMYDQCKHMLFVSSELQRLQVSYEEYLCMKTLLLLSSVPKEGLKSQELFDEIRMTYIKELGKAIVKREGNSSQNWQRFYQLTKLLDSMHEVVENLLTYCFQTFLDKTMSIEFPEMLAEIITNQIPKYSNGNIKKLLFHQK
# From the text: as §1
# [8] = target: T3, mineralocorticoids receptor (MR) (Rattus norvegicus, UniProt P22199); assay: as above; format: cell-based; details: agonist and antagonist modes
# T3 construct: expressed in transfected cells
# From the text: as §1
# PPAR-α = target: T4, PPAR-α (Homo sapiens, UniProt Q07869); assay: as above; format: cell-based; details: agonist and antagonist modes
# T4 construct: expressed in transfected cells
# From the text: as §1
# [9] = target: T5, farnesoid X receptor (FXR) (Homo sapiens, UniProt Q96RI1); assay: as above; format: cell-based; details: agonist and antagonist modes
# T5 construct: expressed in transfected cells
# From the text: as §1
# androgen receptor (AR) = target: T6, androgen receptor (AR) (Rattus norvegicus, UniProt P15207); assay: as above; format: cell-based
# T6 construct: expressed in transfected cells
# From the text: as §1
# PPAR-γ = target: T7, PPAR-γ (Homo sapiens, UniProt P37231); assay: as above; format: cell-based; details: agonist and antagonist modes
# T7 construct: expressed in transfected cells
# From the text: as §1
# [10] = target: T8, progesterone receptor (PR) (Rattus norvegicus, UniProt Q63449); assay: as above; format: cell-based; details: agonist and antagonist modes
# T8 construct: expressed in transfected cells
# From the text: as §1
# male Sprague-Dawley rats = assay: Recovery of testosterone levels after 3-day oral dosing in rats; format: in vivo, rat; details: 1 mg/kg oral for three days; no recovery
# From the text: Thirty-five (35) male Sprague-Dawley rats weighing approximately 200 g were maintained on a 12-h light/dark cycle with food (2016 Teklad Global 16% Protein Rodent Diet, Harlan, Madison, Wis.) and water available ad libitum. The animal protocol was reviewed and approved by the Institutional Animal Care and Use Committee of the University of Tennessee.
# The test article for this study was weighed and dissolved in PEG 300 (100%) (Acros Organics, NJ) to prepare the appropriate dose formulations. Animals were randomly assigned to one of the […] treatment groups (n=5 animals/group). The animals were housed in groups of 2 to 3 animals per cage. Group 1 was sacrificed at the initiation of the study (Day 1) for determination of baseline testosterone levels in intact animals. Groups 2-7 received daily doses of 1, 3, or 30 mg/kg via oral gavage (˜200 uL) for three days. Groups 2, 3, and 4 were sacrificed on Day 4 to measure maximal testosterone suppression. Groups 5, 6, and 7 were allowed to recover for 14 days with a drug free washout period.
# Human 17β-HSD5 = target: T9, Human 17β-HSD5 (Homo sapiens, UniProt P42330); assay: 17β-HSD5 enzyme activity (14C androstenedione to testosterone, TLC); format: biochemical; details: purified protein, NADPH (FIG. 3)
# T9 construct: GST (inferred from pGEX 4t1 vector; own knowledge) (N); made in house
# T9 sequence (P42330 whole entry): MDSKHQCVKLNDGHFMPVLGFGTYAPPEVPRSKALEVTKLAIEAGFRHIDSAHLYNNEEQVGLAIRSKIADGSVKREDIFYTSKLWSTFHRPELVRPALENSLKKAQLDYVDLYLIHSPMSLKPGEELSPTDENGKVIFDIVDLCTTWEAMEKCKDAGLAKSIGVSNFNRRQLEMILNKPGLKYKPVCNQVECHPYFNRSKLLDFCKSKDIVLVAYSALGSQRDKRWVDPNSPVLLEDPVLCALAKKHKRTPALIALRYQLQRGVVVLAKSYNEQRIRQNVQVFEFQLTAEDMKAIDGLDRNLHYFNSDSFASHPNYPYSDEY
# T6 sequence (P15207 whole entry S389L): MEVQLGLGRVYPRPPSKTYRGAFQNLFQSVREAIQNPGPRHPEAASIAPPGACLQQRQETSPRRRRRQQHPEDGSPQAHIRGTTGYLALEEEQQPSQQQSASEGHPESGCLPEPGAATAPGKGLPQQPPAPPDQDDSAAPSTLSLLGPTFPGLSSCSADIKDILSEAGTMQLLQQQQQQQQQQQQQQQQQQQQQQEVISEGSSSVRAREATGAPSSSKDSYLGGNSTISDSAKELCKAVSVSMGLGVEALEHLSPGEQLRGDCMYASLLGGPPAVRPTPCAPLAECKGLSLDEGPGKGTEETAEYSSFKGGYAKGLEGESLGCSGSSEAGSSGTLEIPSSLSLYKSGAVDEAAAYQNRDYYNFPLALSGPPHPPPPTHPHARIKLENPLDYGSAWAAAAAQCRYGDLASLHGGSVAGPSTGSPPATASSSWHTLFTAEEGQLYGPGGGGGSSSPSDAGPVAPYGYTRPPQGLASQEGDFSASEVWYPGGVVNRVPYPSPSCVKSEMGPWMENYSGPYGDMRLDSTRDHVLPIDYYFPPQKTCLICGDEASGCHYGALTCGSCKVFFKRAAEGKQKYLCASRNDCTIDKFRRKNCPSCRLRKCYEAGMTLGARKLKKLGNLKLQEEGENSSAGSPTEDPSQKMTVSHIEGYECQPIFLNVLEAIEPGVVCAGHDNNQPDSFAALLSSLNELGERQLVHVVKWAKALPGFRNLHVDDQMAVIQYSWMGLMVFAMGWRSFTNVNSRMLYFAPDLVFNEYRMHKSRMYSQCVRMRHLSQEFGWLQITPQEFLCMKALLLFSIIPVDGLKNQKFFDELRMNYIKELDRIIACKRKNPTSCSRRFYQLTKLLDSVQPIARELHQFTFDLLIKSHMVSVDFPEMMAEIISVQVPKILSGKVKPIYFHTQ
# T3 sequence (P22199 whole entry): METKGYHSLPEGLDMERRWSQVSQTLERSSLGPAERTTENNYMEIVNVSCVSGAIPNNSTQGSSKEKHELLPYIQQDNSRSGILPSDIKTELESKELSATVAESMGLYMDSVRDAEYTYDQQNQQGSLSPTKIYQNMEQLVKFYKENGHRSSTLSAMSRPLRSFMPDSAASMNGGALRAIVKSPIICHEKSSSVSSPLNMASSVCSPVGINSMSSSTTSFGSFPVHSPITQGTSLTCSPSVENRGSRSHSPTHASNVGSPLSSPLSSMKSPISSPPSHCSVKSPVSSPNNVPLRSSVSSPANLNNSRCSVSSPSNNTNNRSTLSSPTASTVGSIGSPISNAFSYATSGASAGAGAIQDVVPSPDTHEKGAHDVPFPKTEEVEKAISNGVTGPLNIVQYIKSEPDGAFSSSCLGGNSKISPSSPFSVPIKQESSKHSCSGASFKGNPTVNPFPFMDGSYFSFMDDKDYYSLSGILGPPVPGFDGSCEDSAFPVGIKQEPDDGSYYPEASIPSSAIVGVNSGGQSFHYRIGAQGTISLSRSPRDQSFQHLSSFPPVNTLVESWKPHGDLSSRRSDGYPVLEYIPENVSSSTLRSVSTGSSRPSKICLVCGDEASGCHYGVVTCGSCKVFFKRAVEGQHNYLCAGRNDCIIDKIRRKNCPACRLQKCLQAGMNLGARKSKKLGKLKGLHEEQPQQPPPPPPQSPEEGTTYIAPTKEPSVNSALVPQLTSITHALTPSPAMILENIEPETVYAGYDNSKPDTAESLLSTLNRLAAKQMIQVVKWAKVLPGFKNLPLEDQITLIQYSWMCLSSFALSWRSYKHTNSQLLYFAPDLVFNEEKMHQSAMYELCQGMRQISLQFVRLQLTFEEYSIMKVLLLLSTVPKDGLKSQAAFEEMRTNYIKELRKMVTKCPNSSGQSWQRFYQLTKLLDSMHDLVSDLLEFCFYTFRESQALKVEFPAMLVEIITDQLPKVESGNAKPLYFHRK
# T4 sequence (Q07869 whole entry): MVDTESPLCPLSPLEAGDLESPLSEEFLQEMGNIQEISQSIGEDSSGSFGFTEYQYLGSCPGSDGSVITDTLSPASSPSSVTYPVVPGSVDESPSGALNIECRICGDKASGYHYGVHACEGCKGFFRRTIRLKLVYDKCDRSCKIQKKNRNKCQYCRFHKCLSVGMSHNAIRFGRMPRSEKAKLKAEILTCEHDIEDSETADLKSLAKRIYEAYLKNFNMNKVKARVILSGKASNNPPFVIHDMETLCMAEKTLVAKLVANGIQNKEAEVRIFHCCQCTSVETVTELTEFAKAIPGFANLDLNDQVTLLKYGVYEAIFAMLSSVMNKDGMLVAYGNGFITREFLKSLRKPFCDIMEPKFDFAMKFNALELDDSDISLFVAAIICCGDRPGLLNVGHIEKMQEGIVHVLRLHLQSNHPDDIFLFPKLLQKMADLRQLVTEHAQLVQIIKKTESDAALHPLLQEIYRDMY
# T7 sequence (P37231 whole entry): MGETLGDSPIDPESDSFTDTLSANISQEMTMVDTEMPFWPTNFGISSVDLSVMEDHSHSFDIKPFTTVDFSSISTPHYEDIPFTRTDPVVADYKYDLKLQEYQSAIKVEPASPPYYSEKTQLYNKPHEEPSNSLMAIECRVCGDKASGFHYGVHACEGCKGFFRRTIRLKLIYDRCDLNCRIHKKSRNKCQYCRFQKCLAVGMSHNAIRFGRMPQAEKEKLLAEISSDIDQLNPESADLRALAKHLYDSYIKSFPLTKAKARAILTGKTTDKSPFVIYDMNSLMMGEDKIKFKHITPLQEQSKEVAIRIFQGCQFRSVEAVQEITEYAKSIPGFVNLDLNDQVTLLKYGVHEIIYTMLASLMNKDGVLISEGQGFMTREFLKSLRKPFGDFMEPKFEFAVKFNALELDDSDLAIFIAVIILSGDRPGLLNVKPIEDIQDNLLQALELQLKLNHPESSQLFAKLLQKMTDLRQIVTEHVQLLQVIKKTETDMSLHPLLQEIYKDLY
# T1 sequence (P19793 whole entry): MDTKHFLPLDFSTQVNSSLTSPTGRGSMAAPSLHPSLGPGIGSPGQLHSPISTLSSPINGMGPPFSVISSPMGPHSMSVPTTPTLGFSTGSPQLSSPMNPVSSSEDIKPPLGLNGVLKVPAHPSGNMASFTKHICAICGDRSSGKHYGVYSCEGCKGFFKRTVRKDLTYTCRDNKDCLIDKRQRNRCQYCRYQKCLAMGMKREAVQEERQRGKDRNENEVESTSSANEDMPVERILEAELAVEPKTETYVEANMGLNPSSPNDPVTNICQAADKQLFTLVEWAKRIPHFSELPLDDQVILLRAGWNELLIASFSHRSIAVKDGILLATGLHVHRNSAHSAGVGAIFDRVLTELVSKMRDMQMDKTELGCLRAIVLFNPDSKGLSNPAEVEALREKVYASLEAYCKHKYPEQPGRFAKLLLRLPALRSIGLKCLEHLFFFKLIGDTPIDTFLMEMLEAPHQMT
# T8 sequence (Q63449 whole entry): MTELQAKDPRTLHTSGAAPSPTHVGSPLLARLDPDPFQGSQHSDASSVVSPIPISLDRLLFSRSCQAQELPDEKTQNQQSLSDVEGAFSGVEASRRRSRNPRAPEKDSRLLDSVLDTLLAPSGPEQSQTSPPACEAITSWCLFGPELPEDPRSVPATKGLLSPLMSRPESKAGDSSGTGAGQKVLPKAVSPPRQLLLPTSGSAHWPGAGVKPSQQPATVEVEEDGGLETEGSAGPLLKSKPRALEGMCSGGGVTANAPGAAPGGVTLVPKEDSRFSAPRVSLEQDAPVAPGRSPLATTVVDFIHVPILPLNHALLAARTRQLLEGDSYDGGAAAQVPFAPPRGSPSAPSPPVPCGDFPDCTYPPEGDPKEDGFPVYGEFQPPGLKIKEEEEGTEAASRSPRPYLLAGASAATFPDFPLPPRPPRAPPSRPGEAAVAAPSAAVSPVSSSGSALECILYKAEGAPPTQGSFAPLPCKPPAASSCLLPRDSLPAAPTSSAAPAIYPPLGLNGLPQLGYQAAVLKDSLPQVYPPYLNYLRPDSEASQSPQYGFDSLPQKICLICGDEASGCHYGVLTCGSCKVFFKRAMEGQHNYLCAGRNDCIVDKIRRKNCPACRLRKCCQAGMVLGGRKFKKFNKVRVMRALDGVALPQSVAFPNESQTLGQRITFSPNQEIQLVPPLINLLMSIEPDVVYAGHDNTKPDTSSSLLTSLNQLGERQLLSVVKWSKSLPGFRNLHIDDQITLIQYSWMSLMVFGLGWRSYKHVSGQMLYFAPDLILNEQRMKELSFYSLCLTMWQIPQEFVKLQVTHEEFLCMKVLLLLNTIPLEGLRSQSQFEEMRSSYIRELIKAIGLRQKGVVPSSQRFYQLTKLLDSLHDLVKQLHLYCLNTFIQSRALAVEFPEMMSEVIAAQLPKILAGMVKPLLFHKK
# T5 sequence (Q96RI1 whole entry): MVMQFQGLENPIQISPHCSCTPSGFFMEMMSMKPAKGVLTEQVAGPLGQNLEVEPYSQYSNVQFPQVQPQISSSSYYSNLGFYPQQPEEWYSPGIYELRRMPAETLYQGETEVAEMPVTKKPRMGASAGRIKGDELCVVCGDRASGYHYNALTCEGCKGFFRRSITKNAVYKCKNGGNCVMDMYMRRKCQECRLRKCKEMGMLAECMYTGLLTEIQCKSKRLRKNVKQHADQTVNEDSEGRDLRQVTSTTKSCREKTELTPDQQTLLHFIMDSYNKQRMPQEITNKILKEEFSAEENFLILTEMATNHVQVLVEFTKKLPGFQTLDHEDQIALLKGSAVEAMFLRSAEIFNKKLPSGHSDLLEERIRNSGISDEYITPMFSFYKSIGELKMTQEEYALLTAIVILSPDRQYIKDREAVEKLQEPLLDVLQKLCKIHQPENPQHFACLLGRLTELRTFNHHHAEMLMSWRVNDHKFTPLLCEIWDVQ
smiles,measurement,setting,value
"O=C(c1ccc(O)c(F)c1)N(c1ccc(O)cc1)c1ccc(F)cc1 [Compound IV, 3-fluoro-N-(4-fluorophenyl)-4-hydroxy-N-(4-hydroxyphenyl)benzamide]",Effect on estrogen related receptor (ERR) transactivation,[1],does not; also recorded: failed to crossreact
same,Effect on hot flashes (tail skin temperature after naloxone),[2],attenuated hot flashes
same,Procoagulatory activity compared with DES,human platelets,much lower procoagulatory activity than DES
same,Tolerability after single and repeated oral administration,rats [3],well-tolerated
same,Serum PSA levels in castrate animals,"[4]; 1, 10, 100 mg/kg/day oral (groups 4, 5 and 6), within four weeks",significantly suppressed
same,Mean prostate weights at necropsy,[4]; after thirteen weeks of treatment,significantly reduces
same,Testosterone flare,[4]; castrated animals treated with Compound IV,not observed
same,Gastrointestinal motility and gastric acidity,rats [5]; oral 30 mg/kg in rats,significant increase
same,Peristalsis,rats [5]; oral 30 to 300 mg/kg in rats,significant increase
same,Agonist or antagonist activity at RXR-α,[6],did not display any agonist or antagonist activity
same,Cross-reaction with glucocorticoid receptor (GR),[7]; FIG. 12A,does not; also recorded: did not
same,Agonist or antagonist activity at GR,[7]; agonist and antagonist modes,did not display any agonist or antagonist activity
same,Agonist or antagonist activity at MR,[8],did not display any agonist or antagonist activity
same,Agonist or antagonist activity at PPAR-α,PPAR-α,did not display any agonist or antagonist activity
same,Agonist or antagonist activity at FXR,[9],did not display any agonist or antagonist activity
same,Cross-reaction with androgen receptor (AR),androgen receptor (AR); FIG. 12B,does not; also recorded: did not
same,Agonist or antagonist activity at AR,androgen receptor (AR); agonist and antagonist modes,did not display any agonist or antagonist activity
same,Agonist or antagonist activity at PPAR-γ,PPAR-γ,did not display any agonist or antagonist activity
same,Agonist or antagonist activity at PR,[10],did not display any agonist or antagonist activity
same,Serum testosterone after dosing,male Sprague-Dawley rats,No significant suppression
same,Effect on 17β-HSD5 enzyme activity,Human 17β-HSD5,partial inhibitory effect
